The results in this text go back to US5234934A, “Aminopropanol derivatives, process for their preparation and pharmaceutical compositions comprising the same” (priority 1989, dated 1993).

A short description of series [1]: acute toxicity test in mice (Litchfield and Wilcoxon). In kind it is in vivo, mouse. The following applies: mouse, in vivo, po., 14 days observation. How it is done: The test for acute toxicity was carried out by using 10 white mice (CFLP strain) (both male and female), weighing 18 to 22 g in each dose group. The compounds of the invention were administered orally in a dose of 20 ml/kg.
The animals were kept in a plastic box on wood chips in a room of room temperature. They could consume tap water and standard mouse feed ad libitum. The toxicity data were determined by the method of Litchfield and Wilcoxon (Litchfield, J. T., Wilcoxon, F. W.: J. Pharmacol. Exp. Ther. 96, 99/1949/).

Series [2] has as its system gastric acid secretion. The series can be described thus: gastric acid secretion test (Shay). It is filed as in vivo, rat. Conditions: Rattus norvegicus, read-out: Inhibition of free acid, %. As to the method: The test was carried out according to Shay's operational method. […] On the day of the test the pylorus of the animals was bound under ether narcosis. The test compounds were administered orally 3 hours before the operation. The animals of the control group were administered with the carrier only. 4 hours after the operation the stomach was removed, the content thereof was centrifuged and the amount of free acid was determined by titration with 0.1N sodium hydroxide.

Series [3] has as its system peristalty of stomach and intestines. The series can be described thus: effect exerted on the peristalty of stomach and intestines (Stickney et al., carbon suspension). It is filed as in vivo, mouse. Conditions: for ED50: Mus musculus, read-out: ED50 (antiperistaltic); for TI (therapeutic index): antiperistaltic. As to the method:
The antiperistaltic effect of the compounds was examined by the method of Stickney et al. on white mice of both sexes, weighing 20 to 25 g. The compounds to be tested were administered per os 60 minutes before the addition of carbon suspension to groups containing 10 mice each. The animals of the control groups were treated at the same time and in the same manner with the carrier only. The mice were killed 10 minutes after the addition of the carbon suspension, and the whole length of the intestines as well as the length of the intestines filled with carbon suspension were measured.

Series [4] relates to aconitine-induced ECG alterations. The series can be described thus: animal or person. In kind it is in vivo, rat. Conditions: Rattus norvegicus, iv; for change in vivo at 4 mg/kg: read-out: Effect % (antiarrhythmic). How it is done:
The test was carried out by using the modified method of Marmo et al. on rats weighing 160 to 200 g. The animals were narcotised by ethyl uretane (1.2 g/kg ip.). Aconitin was administered intravenously in a dose of 75 /ug/kg in the form of a bolus injection. The ECG alterations were monitored in standard II lead by 5 minutes after the administration of aconitine. The observed alterations were classified into classes 0 to 5. The compounds of the invention were administered 2 minutes or 60 minutes before the parenteral or oral administration of aconitine, respectively. […]
class 1: sometimes an extrasystole occurs class 2: each second one is an extrasystole class 3: extrasystoles in groups class 4: each one is an extrasystole class 5: fibrillation, death
(Marmo, E., DiGiacomo, S., Imperatore, A.: Arzeimittel-Forschung 20, 12/1970/)

Series [5] concerns hexobarbital narcosis. Put plainly: narcosis potentiating effect (hexobarbital sleeping time). The following applies: for ED50: Mus musculus, po, read-out: ED50 (narcosis potentiation); for TI (therapeutic index): narcosis potentiation, mice, po.
Method: The narcosis potentiating effect of the compounds of the invention were examined on white mice, with 6 animals in each group. The mice were administered orally with the compounds of the invention, then both the control and the test groups were intravenously added 40 mg/kg of hexobarbital in order to make the mice sleep (Kaergard et al.).
Series [6] has as its system nervus ischiadicus. Put plainly: local analgesic effect (Truant d'Amato's method). In kind it is in vivo. The following applies: for EC50 %: 0.2 ml injected around nervus ischiadicus; for Duration of effect: in a conc. of 0.5%. As to the method:
The tests were carried out according to Truant d'Amato's method. 0.2 ml of test material was injected around the nervus ischiadicus in the middle of femur with a needle of 1 cm length. The criterion of analgesic effect was the lack of the motoric control of foot muscles.
The duration of effect was registered and the 50 percentile effective concentration (EC50) was calculated on the basis of the dose-effect curve. Lidocain was used as comparative material. (Truant, A. P., D'Amato, D.: Acta Chir Scand. 116, 351/1958/)

The structures appear in SMILES notation. Read-outs that look alike come from different tables or passages of the source. Bounds are passed on as bounds.

One may read the LD50 as the dose expected to kill half of the subjects tested. As a reminder, the ED50 is the dose at which the effect has come halfway, by size or by number of responders.

On to `CN1CCN(CC(O)CO/N=C2\CCCC\C2=C/c2ccccc2)CC1` (racemic) [Example 4, R,S-2-(E)-Phenylmethylene-1-(E)-[3-(4-methyl-1-piperazinyl)-2'-hydroxy-propoxyimino]-cyclohexane], for which the LD50 at 336 h in series [1] came out at 1800 mg/kg. In addition, in series [2] (dose 200 mg/kg po., rats), the inhibition in vivo at 200 mg/kg is 77%.
The compound `OC(CO/N=C1\CCCC\C1=C/c1ccccc1)CN1CCN(c2ccccc2)CC1` (racemic) [Example 5, R,S-2-(E)-Phenylmethylene-1-(E)-[3-(4-phenyl-1-piperazinyl)-2-hydroxy-propoxyimino]-cyclohexane] returned an LD50 at 336 h in series [1] of more than 1000 mg/kg. In series [3] (po., mice), the ED50 was 70 mg/kg and the “TI (therapeutic index)” value stood at 14.
`OC(CO/N=C1\CCCC\C1=C/c1ccccc1)CN1CCN(Cc2ccccc2)CC1` (racemic) [Example 6, R,S-2-(E)-Phenylmethylene-1-(E)-[3-(4-phenylmethyl-1-piperazinyl)-2-hydroxy-propoxyimino]-cyclohexane] yielded an LD50 at 336 h in series [1] of more than 1000 mg/kg. Also, in series [3] (po., mice), the ED50 is 140 mg/kg and the “TI (therapeutic index)” value worked out at 7.
In series [1], `OC(CO/N=C1\CCCC\C1=C/c1ccccc1)CN1CCN(c2ccc(Cl)cc2)CC1` (racemic) [Example 12, R,S-2-(E)-Phenylmethylene-1-(E)-{[4-(4-chlorophenyl)-1-piperazinyl]-2-hydroxy-propoxyimino}-cyclohexane] came in with an LD50 at 336 h of 1000 mg/kg. In series [3] (po., mice), the ED50 was approximately 200 mg/kg and the “TI (therapeutic index)” value is “about 5”.
`OCCN1CCN(CC(O)CO/N=C2\CCCC\C2=C/c2ccccc2)CC1` (racemic) [Example 13] gave an LD50 at 336 h in series [1] of more than 1000 mg/kg. For the same compound, the inhibition in vivo at 200 mg/kg in series [2] (dose 200 mg/kg po., rats) stood at 74%.
As for `OC(CO/N=C1\CCCCC\C1=C/c1ccccc1)CN1CCOCC1` (racemic) [Example 15, R,S-2-(E)-Phenylmethylene-1-(E)-(3-morpholino-2-hydroxypropoxyimino)-cycloheptane], the LD50 at 336 h in series [1] was more than 1000 mg/kg. Also, in series [3] (po., mice), the ED50 is 140 mg/kg and the “TI (therapeutic index)” value is reported as 7.
Take `OC(CO/N=C1\CCCCCC\C1=C/c1ccccc1)CN1CCOCC1` (racemic) [Example 18, R,S-2-(E)-Phenylmethylene-1-(E)-(3-morpholino-2-hydroxy-propoxyimino)-cyclooctane]: in series [1], the LD50 at 336 h was more than 1000 mg/kg. In series [4], the change in vivo at 4 mg/kg was -50%. The inhibition in vivo at 200 mg/kg in series [2] (dose 200 mg/kg po., rats) is 68%. For the same compound, in series [5], the ED50 is 25 mg/kg and the “TI (therapeutic index)” value was more than 40.
For the compound `CN1CCN(CC(O)CO/N=C2\CCCCCC\C2=C/c2ccccc2)CC1` (racemic) [Example 20, R,S-2-(E)-Phenylmethylene-1-(E)-[3-(4-methyl-1-piperazinyl)-2-hydroxy-propoxyimino]-cyclooctane], the LD50 at 336 h in series [1] is more than 1000 mg/kg. Moreover, in series [3] (po., mice), the ED50 is approximately 100 mg/kg and the “TI (therapeutic index)” value was “about 10”. In series [5], the ED50 came to 21.5 mg/kg and the “TI (therapeutic index)” value was more than 46.5.
In the case of `CC(C)N(CC(O)CO/N=C1\CCC\C1=C/c1ccccc1)C(C)C` (racemic) [Example 21, R,S-2-(E)-Phenylmethylene-{3-[bis-(1-methylethyl)-amino]-2-hydroxy-propoxyimino}-cyclopentane], the LD50 at 336 h in series [1] was determined as 700 mg/kg. The change in vivo at 4 mg/kg in series [4] is -46%. Further, in series [6], the EC50 % turned out to be 0.24% and the Duration of effect came to 89 min.
On to `CCCCNCC(O)CO/N=C1\CCCC\C1=C/c1ccc(Cl)cc1` (racemic) [Example 29, R,S-2-(E)-(4-Chlorophenyl-methylene)-1-(E)-(3-butylamino-2-hydroxy-propoxyimino)-cyclohexane], for which, in series [1], the LD50 at 336 h came out at 1300 mg/kg. Also, the inhibition in vivo at 260 mg/kg in series [2] (dose 260 mg/kg po., rats) was 87%. In series [5], the ED50 was 30 mg/kg and the “TI (therapeutic index)” value is on record as 43.
On to `CC(C)CNCC(O)CO/N=C1\CCCC\C1=C/c1ccc(Cl)cc1` (racemic) [Example 30, R,S-2-(E)-(4-Chlorophenyl-methylene)-1-(E)-[3-(2-methylpropylamino)-2-hydroxy-propoxyimino]-cyclohexane], for which the LD50 at 336 h in series [1] was determined as 1100 mg/kg. For the same compound, in series [3] (po., mice), the ED50 turned out to be 130 mg/kg and the “TI (therapeutic index)” value was determined as 8.
Turning to `C#CC(C)(C)NCC(O)CO/N=C1\CCCC\C1=C/c1ccc(Cl)cc1` (racemic) [Example 32, R,S-2-(E)-(4-Chlorophenyl-methylene)-1-(E)-[3-(1,1-dimethylpropin-2-yl-amino)-2-hydroxy-propoxyimino]-cyclohexane], the LD50 at 336 h in series [1] was more than 2000 mg/kg. Moreover, the inhibition in vivo at 400 mg/kg in series [2] (dose 400 mg/kg po., rats) amounted to 62%. Besides, in series [5], the ED50 was 50 mg/kg and the “TI (therapeutic index)” value was more than 40.
For the compound `CCCCNCC(O)CO/N=C1\CCCC\C1=C/c1ccc(Cl)c(Cl)c1` (racemic) [Example 33, R,S-2-(E)-(3,4-Dichlorophenyl-methyl)-1-(E)-(3-butylamino-2-hydroxy-propoxyimino)-cyclohexane], in series [1], the LD50 at 336 h was more than 1000 mg/kg. Moreover, the inhibition in vivo at 200 mg/kg in series [2] (dose 200 mg/kg po., rats) came to 100%.
`CCCNCC(O)CO/N=C1\CCCC\C1=C/c1c(Cl)cccc1Cl` (racemic) [Example 35, R,S-2-(E)-(2,6-Dichlorophenyl-methylene)-1-(E)-(3-propylamino-2-hydroxy-propoxyimino)-cyclohexane] came in with an LD50 at 336 h in series [1] of 600 mg/kg. In addition, the ED50 was determined as 1.84 mg/kg in series [4] (read-out: ED50 iv. (antiarrhythmic)) and 11.5 mg/kg in series [5]. In addition, the change in vivo at 4 mg/kg in series [4] was -100%. In series [5], the “TI (therapeutic index)” value stood at 52.
The compound `COc1ccccc1/C=C1\CCCC\C1=N/OCC(O)CN1CCN(c2ccccc2OC)CC1` (racemic) [Example 38, R,S-2-(E)-(2-Methoxyphenyl-methylene)-1-(E)-{[4-(2-methoxyphenyl)-1-piperazinyl]-2-hydroxy-propoxyimino}-cyclohexane] came in with an LD50 at 336 h in series [1] of more than 1000 mg/kg. Further, in series [3] (po., mice), the ED50 was determined as 23 mg/kg and the “TI (therapeutic index)” value came to 44. For the same compound, in series [5], the ED50 amounted to 61 mg/kg and the “TI (therapeutic index)” value was determined as 16.
As to `COc1ccc(/C=C2\CCCC\C2=N/OCC(O)CNCCCN(C)C)cc1` (racemic) [Example 41, R,S-2-(E)-(4-Methoxyphenyl-methylene)-1-(E)-[3-(3-dimethylamino-1-propylamino)-2-hydroxy-propoxyimino]-cyclohexane], the LD50 at 336 h in series [1] is more than 1000 mg/kg. The inhibition in vivo at 200 mg/kg in series [2] (dose 200 mg/kg po., rats) worked out at 67%.
In series [1], `CN(CC(O)CO/N=C1\CCCC\C1=C/c1ccc(Cl)cc1)C1CCCCC1` (racemic) [Example 45, R,S-2-(E)-(4-Chlorophenyl-methylene)-1-(E)-[3'-(N-methyl-N-cyclohexylamino)-2-hydroxy-propoxyimino]-cyclohexane] came in with an LD50 at 336 h of more than 1000 mg/kg. For the same compound, the inhibition in vivo at 200 mg/kg in series [2] (dose 200 mg/kg po., rats) came out at 100%.
As to `CN/C(=N/CCSCc1nc[nH]c1C)NC#N` [Cimetidine, reference compound], in series [2] (po), the inhibition in vivo at 100 mg/kg worked out at 66% and the inhibition in vivo at 200 mg/kg worked out at 91%.
Take `CCN(CC)CC(=O)Nc1c(C)cccc1C` [Lidocain, reference compound]: in series [6], the EC50 % is given as 0.19% and the Duration of effect was determined as 34 min.
Take `COc1ccc(Cc2nccc3cc(OC)c(OC)cc23)cc1OC` [Papaverine, reference compound]: the “inhibition (antiperistaltic)” value in series [3] (280 mg/kg po., mice) came out at 36%. The ED50 in series [3] (po) is more than 280 mg/kg.
For the compound `COc1cc(C(=S)N2CCOCC2)cc(OC)c1OC` [Trithiozine, reference compound], in series [2] (po), the inhibition in vivo at 100 mg/kg came to 30% and the inhibition in vivo at 400 mg/kg was determined as 63%.
